Test results: patent US8383616B2, “Aryl isoxazole compounds with antitumoural activities” (Sigma-Tau Industrie Farmaceutiche Riunite SpA, priority 2008, dated 2013)

Key:
[1] = system: human epithelial carcinoma cell line A431; experiment: Cytotoxicity assay (sulphorodamine B test), A431; type: cell-based; details: Homo sapiens, A-431, 72-h exposure
Experimental: (§1) Tumour cells were seeded in 96-well tissue culture plates at approximately 10% confluence and were allowed to attach and recover for at least 24 h. Varying concentrations of the drugs were then added to each well to calculate their IC50 value (the concentration which inhibits the 50% of cell survival). The plates were incubated at 37° C. for 72 h. At the end of the treatment, the plates were washed by removal of the supernatant and addition of phosphate buffered saline (PBS) 3 times. 200 μl PBS and 50 μl of cold 80% trichloroacetic acid (TCA) were added. The plates were incubated on ice for at least 1 h. TCA was removed, the plates were washed 3 times by immersion in distilled water and dried on paper and at 40° C. for 5 min. Then 200 μl of 0.4% sulphorodamine B in 1% acetic acid were added. The plates were incubated at RT for 30 min. Sulphorodamine B was removed, the plates were washed by immersion in 1% acetic acid for 3 times, then they were dried on paper and at 40° C. for 5 min. Then, 200 μl Tris 10 mM were added, the plates were kept under stirring for 20 min. The cell survival was determined as optical density by a Multiskan spectrofluorimeter at 540 nm. The amount of cells killed was calculated as the percentage decrease in sulphorodamine B binding compared with control cultures.
(§2) The IC50 values were calculated with the “ALLFIT” program.
The antiproliferative activity of novel Hsp90 inhibitors was evaluated on NCI-H460 non-small cell lung carcinoma cells and on a human epithelial carcinoma cell line A431.
(§3) The antiproliferative IC50 was evaluated as drug concentration required for 50% reduction of cell growth as compared with untreated controls after 72-h exposure to the drug. The IC50±SD values reported were calculated by ALLFIT program.

[2] = system: NCI-H460 non-small cell lung carcinoma cells; experiment: Cytotoxicity assay (sulphorodamine B test), NCI-H460; type: cell-based; details: Homo sapiens, NCI-H460, 72-h exposure
Experimental: To evaluate the effect of the compounds on cells survival, the sulphorodamine B test was used. To test the effects of the compounds on cell growth, NCI-H460 non-small cell lung carcinoma cells were used. Tumour cells were grown in RPMI 1640 containing 10% fetal bovine serum (GIBCO).
as §1, §2, §3

Hsp90 = target: T1, Hsp90 (Homo sapiens, UniProt P07900); experiment: Fluorescence polarization (FP) binding assay, displacement of GM-BODIPY; details: GM-BODIPY tracer, 125 nM Hsp90, 4 h at 4° C.; read-out: F.P. binding assay IC50
T1 construct: purchased Stressgen SPP-776
Experimental: Fluorescence Polarization (FP)
GM-BODIPY (PerkinElmer, CUSN60342000MG) was previously dissolved in DMSO to obtain 10 mM stock solutions and kept at −20° C. until use.
The compounds were previously dissolved in DMSO to obtain stock solutions and kept at −20° C. The day of experiment, the compounds were prepared by serial dilutions in HFB. Before each use, 0.1 mg/ml Bovine Gamma globulin and 2 mM DTT were freshly added.
The plate was mixed on a shaker at 4° C. for 4 hours, and the FP values in mP (millipolarization units) were recorded. […] Curve fitting was performed using Prism GraphPad software program (GraphPad software, Inc., San Diego, Calif.).
Curve fitting was performed using Prism GraphPad software program (GraphPad software, Inc., San Diego, Calif.).

Row | Structure (SMILES) | IC50 [1] | IC50 [2] | IC50 (Hsp90)
1 | CCCCC[C@H]1CC[C@H](C(=O)Nc2c(C(=O)NCC)noc2-c2cc(C(C)C)c(O)cc2O)CC1 [Example 20, 5-(2,4-dihydroxy-5-isopropyl-phenyl)-4-[(trans-4-pentyl-cyclohexanecarbonyl)-amino]-isoxazole-3-carboxylic acid ethylamide] | 1000 to 10000 nM | 1000 to 10000 nM | 100 to 1000 nM
2 | CCNC(=O)c1noc(-c2cc(C(C)C)c(O)cc2O)c1NC(=O)C1CCC(C(F)(F)F)CC1 (stereo not drawn) [Example 21, 5-(2,4-dihydroxy-5-isopropyl-phenyl)-4-[(4-trifluoromethyl-cyclohexanecarbonyl)-amino]-isoxazole-3-carboxylic acid ethylamide] | < 100 nM | < 100 nM | 100 to 1000 nM
3 | CCNC(=O)c1cc(C(=O)Nc2c(C(=O)NCC)noc2-c2cc(C(C)C)c(O)cc2O)on1 [Example 22, N^5-(3-(ethylcarbamoyl)-5-(2,4-dihydroxy-5-isopropylphenyl)-isoxazol-4-yl)-N^3-ethylisoxazole-3,5-dicarboxamide] | 1000 to 10000 nM | 1000 to 10000 nM | < 100 nM
4 | CCNC(=O)c1noc(-c2cc(Cl)c(O)cc2O)c1NCc1ccc(OC)cc1 [Example 27, 4-(4-methoxybenzylamino)-5-(5-chloro-2,4-dihydroxyphenyl)-N-ethylisoxazole-3-carboxamide] | 1000 to 10000 nM | 1000 to 10000 nM | 100 to 1000 nM
5 | CCNC(=O)c1noc(-c2cc(Cl)c(O)cc2O)c1NCc1sccc1C [Example 28, 4-((3-methylthiophen-2-yl)methylamino)-5-(5-chloro-2,4-dihydroxyphenyl)-N-ethylisoxazole-3-carboxamide] | 1000 to 10000 nM | 1000 to 10000 nM | 100 to 1000 nM
6 | CCNC(=O)c1noc(-c2cc(Cl)c(O)cc2O)c1NC1CCCCC1 [Example 29, 5-(5-chloro-2,4-dihydroxyphenyl)-4-(cyclohexylamino)-N-ethylisoxazole-3-carboxamide] | 1000 to 10000 nM | 1000 to 10000 nM | 100 to 1000 nM
7 | CCNC(=O)c1noc(-c2cc(Cl)c(O)cc2O)c1NC1CCN(C)CC1 [Example 30, 4-(1-methylpiperidin-4-ylamino)-5-(5-chloro-2,4-dihydroxyphenyl)-N-ethylisoxazole-3-carboxamide] | 1000 to 10000 nM | 1000 to 10000 nM | 1000 to 10000 nM
8 | CCNC(=O)c1noc(-c2cc(Cl)c(O)cc2O)c1NCc1cc(C(=O)OC)no1 [Example 31, Methyl 5-((3-(ethylcarbamoyl)-5-(5-chloro-2,4-dihydroxyphenyl)isoxazol-4-ylamino)methyl)isoxazole-3-carboxylate] | 1000 to 10000 nM | 1000 to 10000 nM | < 100 nM
9 | CCNC(=O)c1noc(-c2cc(Cl)c(O)cc2O)c1NCc1cc(CO)no1 [Example 32, 4-((3-(hydroxymethyl)isoxazol-5-yl)methylamino)-5-(5-chloro-2,4-dihydroxyphenyl)-N-ethylisoxazole-3-carboxamide] | 1000 to 10000 nM | 1000 to 10000 nM | 100 to 1000 nM
10 | COc1ccc(C(=O)Nc2c(C(=O)NCC(F)(F)F)noc2-c2cc(Cl)c(O)cc2O)cc1 [Example 33, 4-(4-methoxybenzamido)-5-(5-chloro-2,4-dihydroxyphenyl)-N-(2,2,2-trifluoroethyl)-isoxazole-3-carboxamide] | 100 to 1000 nM | 1000 to 10000 nM | 100 to 1000 nM
